Measurements: patent US12416052B2, “Capturing, concentrating, and detecting microbes in a sample using magnetic ionic liquids and recombinase polymerase amplification” (priority 2019, dated 2025)

How the values were obtained:
[1] = test system: S. minnesota mR613 (OM mutant, deep rough); assay: MIL-based whole-cell extraction (capture, wash, back-extraction, plating); design: species or system Salmonella enterica; key to Relative Affinity for MIL: +++++: higher losses during wash step are due to lower cellular affinity for the MIL; ++++: higher losses during wash step are due to lower cellular affinity for the MIL; +++: higher losses during wash step are due to lower cellular affinity for the MIL; ++: higher losses during wash step are due to lower cellular affinity for the MIL; +: higher losses during wash step are due to lower cellular affinity for the MIL; details: for Percent-Loss: cells lost to wash solution
Protocol: (§1) A universal schematic for MIL-based cell extraction is depicted in FIG. 7B. A 1 mL volume of diluted cell suspension was added to a flat-bottomed 4-mL screw cap glass vial. Fifteen microliters of either the Ni(II) or Dy(III) MIL was added and dispersed into microdroplets by vortex agitation for 30 s. The aqueous phase was decanted following dispersive extraction, and the MIL was subjected to a brief wash step using 1 mL of nuclease-free water (Integrated DNA Technologies, Coralville, IA, USA) to ensure adequate removal of loosely or incidentally bound cells. After washing, release of viable cells from the MIL extraction phase was carried out using a “back-extraction” step accomplished through addition of 1 mL of an ionically-rich nutritive medium comprised of 20 g L^−1 tryptone and 10 g L^−1 NaCl, followed by a 120 s vortex step. After back-extraction, aliquots of the cell-enriched back-extraction medium were enumerated using the track dilution method using 100×100 mm square, gridded TSA, BSA, CA or VRBGA plates.
(§2) Following back-extraction, aliquots of the cell-enriched back-extraction medium were serially diluted in 0.1% peptone water and a 10 μL aliquot of each dilution was applied to a separate lane on square plates containing an appropriate agar medium. The plates were then tilted at an approximately 80° angle for 15 min to allow the droplets to travel toward the opposite end of the plate. The plates were incubated for 24 h at 37° C. (TSA, VRBGA), for 48 h at 37° C. (BSA) or for 24 h at 37° C. (CA). Colonies were counted and colony forming units (CFU) were determined. The enrichment factor (EF) for MIL-based extraction was calculated using Equation 1, where CMIL represents the concentration of bacteria in suspension following extraction using the MIL and CS is the initial concentration of bacteria in the sample.
(§3) To further evaluate the importance of the OM to serve as a surface to which the MIL can bind and as a protective layer from potentially deleterious activities of the Ni(II) MIL, capture and recovery of two physiological variants of S. minnesota was performed. The strains compared were S. minnesota SLH 157 (wild type, functional OM) and S. minnesota mR613 (OM mutant). […] Compared to the wild type, cells with a truncated OM are dramatically more susceptible to damage from antimicrobial agents or chemically harsh environments. To study the effect of the Ni(II) MIL exposure on the recovery of wild type and mutant strains of S. minnesota, a 1 mL aliquot of TSB was inoculated with 1×10^5 CFU mL^−1 of bacteria and spiked with 15 μL of the Ni(II) MIL. MIL-based extraction was performed and 10 μL aliquots of the back-extraction solution were enumerated using TSA and BSA plates. Average CFU counts were compared to a standard that was not exposed to the Ni(II) MIL. Extraction and recovery of S. typhimurium was also assessed. Enrichment factors were calculated.
(§4) Although all of the strains assessed were capable of being enriched by the MIL, some species were physically enriched to greater extents than others with extraction. In order to further examine the cause for this finding, the number of captured cells lost to the wash solution was investigated. The wash step is performed after the MIL enrichment step in order to remove any incidentally-adsorbed bacteria prior to back-extraction. It is hypothesized that the cells with lower enrichment factors have lower affinities for the MIL and are therefore lost in greater number to the wash solution than those having higher enrichment factors. […] The percent-loss during the wash step ranged from 47-79%. […] EF data from Table 4 for three overlapping Salmonella strains are superimposed to highlight trends in percent-loss, relative affinity and EF.

[2] = test system: S. minnesota SLH 157 (wild type, functional OM); assay: as above; design: species or system Salmonella enterica; key to Relative Affinity for MIL: +++++: higher losses during wash step are due to lower cellular affinity for the MIL; ++++: higher losses during wash step are due to lower cellular affinity for the MIL; +++: higher losses during wash step are due to lower cellular affinity for the MIL; ++: higher losses during wash step are due to lower cellular affinity for the MIL; +: higher losses during wash step are due to lower cellular affinity for the MIL
Protocol: as §1, §2, §3, §4

P. eucalypti 299R = assay: MIL-based whole-cell extraction; design: species or system Pantoea eucalypti; details: EF determined using Columbia Agar
Protocol: A universal schematic for MIL-based cell extraction is depicted in FIG. 7B. A 1 mL volume of diluted cell suspension was added to a flat-bottomed 4-mL screw cap glass vial. Fifteen microliters of either the Ni(II) or Dy(III) MIL was added and dispersed into microdroplets by vortex agitation for 30 s. The aqueous phase was decanted following dispersive extraction, and the MIL was subjected to a brief wash step using 1 mL of nuclease-free water (Integrated DNA Technologies, Coralville, IA, USA) to ensure adequate removal of loosely or incidentally bound cells. […]
as §2, with “The plates were then tilted at an approximately 80° angle for 15 min to allow the droplets to travel toward the opposite end of the plate. The plates were incubated for 24 h at 37° C. (TSA, VRBGA), for 48 h at 37° C. (BSA) or for 24 h at 37° C. (CA).” left out

[3] = 1×10^5 CFU mL^−1 in TSB, 15 μL MIL
[4] = ranked from percent-loss in wash step

SMILES: CCCCCCCCCCCCCC[P+](CCCCCC)(CCCCCC)CCCCCC.O=C([CH-]C(=O)C(F)(F)F)C(F)(F)F.O=C([CH-]C(=O)C(F)(F)F)C(F)(F)F.O=C([CH-]C(=O)C(F)(F)F)C(F)(F)F.[Ni+2] [Ni(II) MIL, [P66614^+][Ni(hfacac)3^−]]
- Enrichment Factor (TSA) [1, 3]: 4
- Percent-Loss [1]: 69 ± 5%
- Percent-Loss ([1]; listed as MIL): 79%
- antimicrobial effect of capture process on deep rough mutant ([1]; post-capture growth behavior on TSA): not overtly antimicrobial
- Relative Affinity for MIL [1, 4]: ++
- Enrichment Factor (BSA) [2, 3]: 11
- Enrichment Factor (TSA) [2, 3]: 17
- Percent-Loss ([2]; cells lost to wash solution): 59 ± 3%
- Relative Affinity for MIL [2, 4]: +++
- Enrichment Factor (P. eucalypti 299R): 169
